The values that follow come from publication PMC12608245, “Integrated Molecular and Functional Analysis of Hop Ethanolic Extract in Caco-2 Cells: Insights into Inflammation, Barrier Function, and Transport” (International Journal of Molecular Sciences, 2025).

The subject of series [1] is IL-6. In words: IL-6 production in IL-1β-stimulated Caco-2 cells (ELISA). The format is cell-based. The conditions noted are these: IL-1β 10 ng/mL, 24 h. As for the experimental part: (§1) Caco-2 cells were seeded in 48-well plates and cultured as described above. […] Prior to application, HLE was dissolved in DMSO and sterilely transferred into fresh serum-free medium. To remove high-molecular-weight pyrogens, the extract was subjected to a two-step ultrafiltration using a Microsep™ Advance Centrifugal Device with 30 kDa and 100 kDa cut-offs (Pall Corporation, Port Washington, NY, USA), as described in Kruk et al.. After ultrafiltration, 10% FBS was added to the medium. Following a one-hour pre-incubation, IL-1β was added to each well to achieve a final concentration of 10 ng/mL. After 24 h of incubation, the supernatants were collected, and IL-6 and IL-8 concentrations were determined using the sandwich ELISA method (BD Biosciences Pharmingen).

For series [2], the system named is Caco-2 monolayers. In words: Transport and metabolism of HLE constituents through Caco-2 monolayers. The format is in vitro ADME. The conditions noted are these: apical to basolateral, 24 h incubation of HLE with Caco-2, based on the peak area ratio. As to the method:
Caco-2 cells were seeded and cultivated as described for the TEER measurements. After 21 days of cultivation, HLE solutions at concentrations of 12.5–100 µg/mL (prepared as for the cell viability assay) were added to the apical compartment. As a non-treated control, medium containing 0.5% DMSO was used. Supernatants from both the apical and basolateral compartments were collected at 0 h and 24 h for chromatographic analysis.
Analyses were performed using a Vanquish UHPLC system coupled with an Exploris 120 Orbitrap mass spectrometer (Thermo Scientific, Bremen, Germany) equipped with a Kinetex XB-C18 column (150 × 2.1 mm, 1.7 µm). Mobile phases consisted of (A) water and (B) acetonitrile:water (4:1, v/v), both containing 0.1% HCOOH and 5 mM NH4HCOO. […] Electrospray settings: spray voltage 3.5 kV (+)/2 kV (−); sheath/aux/sweep gas 48/11/2 Arb; ion transfer tube 320 °C; vaporizer 280 °C. Data were acquired in full-scan mode (resolution 120,000, polarity switching). MS2 spectra were obtained using stepped NCE 30/50% (resolution 15,000) and ddMS2 settings of four fragmentation scans per full scan, single-charge filter, isotope and dynamic exclusion enabled. Experimental samples were analyzed with and without fragmentation exclusion lists generated from control samples to enhance MS2 coverage. Data processing was performed in Compound Discoverer 3.4 (Thermo Scientific, Austin, TX, USA). Signals corresponding to hop extract constituents were identified based on comparison of donor compartment solution and method blank. Similarity analysis and molecular networking (mzMine 4.6) were based on shared fragments or constant m/z shifts.
On the technique in general: Caco-2 cells form a polarised layer with tight junctions and transporters.

For series [3], the system named is IL-8. The series can be described thus: IL-8 production in IL-1β-stimulated Caco-2 cells (ELISA). The format is cell-based. The following applies: IL-1β-stimulated control, IL-1β 10 ng/mL, 24 h. As to the method:
as §1
Background: In an ELISA, binding on a coated surface is turned into a signal by an enzyme label.

The subject of series [4] is Caco-2 monolayers. In words: TEER measurement of Caco-2 monolayer. Format: cell-based. The following applies: for TEER: IL-1β control. As for the experimental part: Caco-2 cells were cultivated in 6-well plates on a Transwell transparent insert (Greiner Bio-One, Kremsmünster, Austria) with density of 6 × 10^5 cells/insert for 21 days. (37 °C, 5% CO2) Medium that was used contained the earlier mentioned ingredients. Three mL of medium was added to the apical compartment, and 3.5 mL was added to the basolateral compartment. The medium was replaced three times per week. CellZscope systems for 24-well and 6-well formats (nanoAnalytics GmbH, Münster, Germany) were used to analyze the TEER. Solutions were made as described in Section 4.5 with concentrations 12.5–100 µg/mL. As non-treated control, medium containing 0.5% DMSO was used. The medium in the apical compartment was replaced with the HLE solutions or control. After a 24-h incubation period 25 ng/mL of IL-1β was added in basolateral compartment.

Series [5] relates to IL-6. The series can be described thus: Caco-2 inflammatory model selection, IL-6 production (ELISA). Format: cell-based. The following applies: IL-1β 25 and 12.5 ng/mL, 24 h. As for the experimental part:
(§2) Cells were seeded in 48-well plates and cultured as described above. After reaching 100% confluence, they were stimulated with different concentrations and combinations of the following factors: TNF-α (1, 12.5, 25 ng/mL), LPS from E. coli (1, 5, 10 µg/mL), IFN-γ (1, 10, 50 ng/mL), a mixture of IFN-γ and TNF-α (1 + 1, 10 + 10, 50 + 50 ng/mL), and IL-1β (0.01, 0.02, 0.04, 0.08, 1, 12.5, 25 ng/mL). […] After 24 h of incubation, the supernatants were collected, and IL-6 and IL-8 concentrations were determined using the sandwich ELISA method (BD Biosciences Pharmingen, San Diego, CA, USA).

For series [6], the system named is IL-8. The series can be described thus: Caco-2 inflammatory model selection, IL-8 production (ELISA). The following applies: 24 h. The format is cell-based. As for the experimental part: as §2
Series [7] concerns Caco-2 monolayers. Also noted: method as in Van de Walle et al. [20]. The following applies: IL-1β 25 ng/mL, Caco-2 cell monolayers; ref Van de Walle et al. [20]; cited from earlier work.

In turn, `C[C@@H]1C[C@H]2[C@@H]3CCC4=CC(=O)C=C[C@]4(C)[C@@]3(F)[C@@H](O)C[C@]2(C)[C@@]1(O)C(=O)CO` [Dexamethasone, reference compound] returned an IL-6 level in the series on IL-6 [1] (dexamethasone 20 µM (positive control), compared with the IL-1β-stimulated control) of 3.7 ± 0.3%.

As for `CC(C)=CCC(=O)[C@@]1(O)C(=O)C(C(=O)C(C)C)=C(O)[C@@]1(O)CC=C(C)C` [Peak M10, cohumulinone], in the series on Caco-2 monolayers [2], the “Transport Efficiency (%)” value was determined as 9%.

With `COc1cc(O)c(CC=C(C)C)c(O)c1C(=O)/C=C/c1ccc(O)cc1` [Peak M13, xanthohumol], in the series on Caco-2 monolayers [2], the “Transport Efficiency (%)” value is 3.5%.

For `CC(C)=CCC1=C(O)C(O)(CC=C(C)C)C(=O)C(C(=O)C(C)C)=C1O` (stereo not drawn) [Peak M14, cohumulone], the “Transport Efficiency (%)” value with Caco-2 monolayers [2] came to 9.5%.

For `CC(C)=CCC1=C(O)C(O)(CC=C(C)C)C(=O)C(C(=O)CCC(C)C)=C1O` (stereo not drawn) [Peak M17, prehumulone], the “Transport Efficiency (%)” value in the series on Caco-2 monolayers [2] is reported as 4.3%.

In the series on IL-6 [1] (IL-1β-stimulated control), “IL-1β: pro-inflammatory cytokine used as inflammatory trigger” returned an IL-6 level of 103.3 ± 1.7%. In addition, in the series on IL-8 [3], the IL-8 level came out at 100.8 ± 5.5%. For the same compound, the TEER in the series with Caco-2 monolayers [4] (33 h) stood at 83.97 ± 4.20%; in the series on Caco-2 monolayers [4] (42 h), 84.25 ± 1.33%. The TEER value decrease in the series on Caco-2 monolayers [4] (after 24 h of exposure to 25 ng/mL IL-1β) is reported as 16 ± 1%. The “IL-6 secretion versus non-treated control” value with IL-6 [5] was “increase IL-6 at concentrations of 25 and 12.5 ng/mL significantly”. In addition, in the series on IL-8 [6] (IL-1β 25, 12.5, 1, 0.08 and 0.04 ng/mL), the “IL-8 secretion versus non-treated control” value is recorded as “significantly increased IL-8 secretion”. In the series on Caco-2 monolayers [7], the TEER reduction entry is “approximately 20 ± 4%”.

For the compound TNF-α, the “IL-8 secretion versus non-treated control” value with IL-8 [6] (TNF-α 25 and 12.5 ng/mL) is recorded as “significantly increased IL-8 secretion”.

On to hulupone/adhulupone [Peak M4], for which the “Transport Efficiency (%)” value in the series with Caco-2 monolayers [2] is recorded as 3.7%.

Regarding “hydroxy-n-humulinone/hydroxyadhumolinone [Peak M11]”, in the series with Caco-2 monolayers [2], the “Transport Efficiency (%)” value was 17.4%.

As to “n-humulinone/adhumulinone isomer 1 [Peak M7]”, in the series on Caco-2 monolayers [2], the “Transport Efficiency (%)” value is on record as 6.9%.

As to “n-humulinone/adhumulinone isomer 2 [Peak M12]”, the “Transport Efficiency (%)” value in the series with Caco-2 monolayers [2] worked out at 11.7%.

In the case of “n-humulone/adhumulone isomer 1 [Peak M15]”, the “Transport Efficiency (%)” value in the series on Caco-2 monolayers [2] is 8%.

In the case of “n-humulone/adhumulone isomer 2 [Peak M16]”, the “Transport Efficiency (%)” value in the series on Caco-2 monolayers [2] is 9.6%.

On to tetrahydro-iso-α-acid [Peak M6], for which the “Transport Efficiency (%)” value in the series with Caco-2 monolayers [2] stood at 2%.
